In assay [1] the target is Mu-type opioid receptor (Cavia porcellus, UniProt P97266). In words: Antagonist activity against mu opioid receptor in guinea-pig ileum assay. The assay is classed as functional, tissue-based.
For assay [2], the target named is Mu-type opioid receptor (Rattus norvegicus, UniProt P33535). In words: Displacement of [3H]DAMGO from mu opioid receptor in rat brain homogenate. The assay is classed as tissue-based.
For assay [3], the target named is Delta-type opioid receptor (Homo sapiens, UniProt P41143). Briefly: Displacement of [3H]DPDE from delta opioid receptor. (Loss of bound radioactivity is the signal in a displacement assay; it reports binding, not function.)
In assay [4] the target is Mu-type opioid receptor (Cavia porcellus) (UniProt P97266). Briefly: Activity at mu opioid receptor in guinea-pig ileum assay. The assay is classed as functional, tissue-based. The settings on record: filed as antagonist.
The target of assay [5] is Kappa-type opioid receptor (Homo sapiens, UniProt P41145). Briefly: Displacement of [3H]U-69593 from kappa opioid receptor.
Chain of Kappa-type opioid receptor (P41145 whole entry): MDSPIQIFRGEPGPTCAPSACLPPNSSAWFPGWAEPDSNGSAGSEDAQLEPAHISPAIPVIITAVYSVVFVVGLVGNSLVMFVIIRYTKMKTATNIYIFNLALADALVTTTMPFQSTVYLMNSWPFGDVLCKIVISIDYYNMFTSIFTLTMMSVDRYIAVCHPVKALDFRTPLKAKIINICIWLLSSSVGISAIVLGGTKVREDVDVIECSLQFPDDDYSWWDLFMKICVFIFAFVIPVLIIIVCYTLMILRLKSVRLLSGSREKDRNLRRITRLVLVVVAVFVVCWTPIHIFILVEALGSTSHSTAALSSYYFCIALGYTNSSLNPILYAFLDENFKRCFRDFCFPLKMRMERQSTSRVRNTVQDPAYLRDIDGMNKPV

Chain of Delta-type opioid receptor (P41143 whole entry): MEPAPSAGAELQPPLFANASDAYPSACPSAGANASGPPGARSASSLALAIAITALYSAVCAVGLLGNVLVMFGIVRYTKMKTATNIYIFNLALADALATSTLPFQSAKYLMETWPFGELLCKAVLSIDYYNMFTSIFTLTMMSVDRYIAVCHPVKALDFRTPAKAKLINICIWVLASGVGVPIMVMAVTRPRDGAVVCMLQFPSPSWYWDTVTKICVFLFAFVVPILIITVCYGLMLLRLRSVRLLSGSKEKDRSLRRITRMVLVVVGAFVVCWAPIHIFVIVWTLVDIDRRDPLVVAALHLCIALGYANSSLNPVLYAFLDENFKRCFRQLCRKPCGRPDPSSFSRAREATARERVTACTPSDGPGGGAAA
Chain of Mu-type opioid receptor (Rattus norvegicus, UniProt P33535) (P33535 whole entry): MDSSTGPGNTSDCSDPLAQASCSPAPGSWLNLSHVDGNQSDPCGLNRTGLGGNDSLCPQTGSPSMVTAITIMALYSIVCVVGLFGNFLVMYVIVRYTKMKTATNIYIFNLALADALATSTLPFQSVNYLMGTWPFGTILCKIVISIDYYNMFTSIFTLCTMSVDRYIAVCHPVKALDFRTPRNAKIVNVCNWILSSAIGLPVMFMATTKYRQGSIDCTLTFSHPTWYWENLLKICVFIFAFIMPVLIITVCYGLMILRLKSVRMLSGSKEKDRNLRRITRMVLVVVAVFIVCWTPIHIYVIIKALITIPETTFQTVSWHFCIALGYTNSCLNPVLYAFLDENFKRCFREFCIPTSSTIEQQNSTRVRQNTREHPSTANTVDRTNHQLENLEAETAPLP
Chain of Mu-type opioid receptor (Cavia porcellus) (P97266 whole entry): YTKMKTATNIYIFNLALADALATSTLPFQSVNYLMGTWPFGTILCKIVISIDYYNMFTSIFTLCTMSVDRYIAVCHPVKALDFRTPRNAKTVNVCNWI
Chain of Mu-type opioid receptor (Cavia porcellus, UniProt P97266) (P97266 whole entry): as above

For `N[C@@H](Cc1ccc(O)cc1)CN(Cc1ccc2ccccc2c1)[C@@H](Cc1ccc(O)cc1)CN(Cc1ccc2ccccc2c1)[C@@H](Cc1ccccc1)CN1CCC[C@H]1CNCc1ccc2ccccc2c1`, the midpoint of inhibition in assay [1], the IC50, lay at 18.6 µM.
For the compound `CNC[C@@H](Cc1ccccc1)N(C)C[C@@H](Cc1ccc(O)cc1)N(C)C[C@@H](Cc1ccc(O)cc1)N(C)C`, the values for the IC50 in assay [2], in assay [3] and in assay [5] were 0.835 µM, 4.97 µM and 8.76 µM, respectively. The Activity entry in assay [4] is “Antagonist”.
The matching figures for `CNC[C@H](Cc1ccccc1)N(C)C[C@@H](Cc1ccc(O)cc1)N(C)C[C@@H](N)Cc1ccc(O)cc1`: 0.339 µM, 48.2 µM, 22.5 µM and “Antagonist”.
`CNC[C@@H]1CCCN1C[C@H](Cc1ccccc1)N(C)C[C@H](Cc1ccc(O)cc1)N(C)C[C@H](Cc1ccc(O)cc1)NC`: the half-maximal inhibitory concentration (IC50) – broadly, the midpoint of a concentration-inhibition curve – in assay [1] was 0.002 µM.
Turning to `CNC[C@H](Cc1ccc(O)cc1)N(Cc1ccccc1)C[C@H](Cc1ccc(O)cc1)N(C)C`, the results for the IC50 in assay [2], in assay [3] and in assay [5] were 1.28 µM, 56.7 µM and 10.6 µM, respectively.
In turn, `N[C@@H](Cc1ccc(O)cc1)CN(Cc1ccccc1)[C@@H](Cc1ccc(O)cc1)CN(Cc1ccccc1)[C@@H](Cc1ccccc1)CN1CCC[C@H]1CNCc1ccccc1` had an IC50 in assay [1] of 4.46 µM. This lies in the single-digit micromolar range.
Take `CNC[C@@H](Cc1ccccc1)N(C)C[C@H](Cc1ccc(O)cc1)N(C)C[C@@H](Cc1ccc(O)cc1)N(C)C`: the half-maximal inhibitory concentration (IC50) is 0.958 µM in assay [2], 11.3 µM in assay [3] and 15.6 µM in assay [5]. For the same compound, in assay [4], the Activity entry was “Antagonist”.
On to `CCNC[C@@H]1CCCN1C[C@H](Cc1ccccc1)N(CC)C[C@H](Cc1ccc(O)cc1)N(CC)C[C@@H](N)Cc1ccc(O)cc1`, for which the IC50 in assay [1] stood at 0.045 µM.
As to `CN(C)[C@H](CN[C@H](CN)Cc1ccc(O)cc1)Cc1ccc(O)cc1`, the results for the IC50 in assay [2], in assay [3] and in assay [5] were 0.262 µM, 17.9 µM and 22.6 µM, respectively.
Take `CN(C[C@@H](N)Cc1ccc(O)cc1)[C@H](CNCc1ccccc1)Cc1ccc(O)cc1`: the half-inhibitory concentration (IC50) in assay [2] was determined as 0.01 µM; in assay [3] it was 10.2 µM; in assay [5], 4.14 µM.
Take `CNC[C@H](Cc1ccccc1)N(C)C[C@H](Cc1ccc(O)cc1)N(C)C[C@@H](Cc1ccc(O)cc1)N(C)C`: the concentration for half-maximal inhibition (IC50) is 0.662 µM in assay [2], 9.05 µM in assay [3] and 10.5 µM in assay [5]. The Activity entry in assay [4] was “Antagonist”.
Consider `CNC[C@H](Cc1ccc(O)cc1)N(Cc1ccccc1)C[C@H](Cc1ccc(O)cc1)NC`, for which the half-maximal inhibitory concentration (IC50) in assay [2] was 1.21 µM; in assay [3], 10.2 µM; in assay [5], 11.1 µM.
For `CNC[C@H](Cc1ccccc1)N(C)C[C@@H](Cc1ccc(O)cc1)N(C)C[C@@H](Cc1ccc(O)cc1)N(C)C`, the figures for the IC50 in assay [2], in assay [3] and in assay [5] were 1.5 µM, 17.8 µM and 6.06 µM, respectively. In assay [4], the Activity result was “Antagonist”.
Take `CN[C@H](CN[C@H](CN)Cc1ccc(O)cc1)Cc1ccc(O)cc1`: the IC50 is 0.111 µM in assay [2], 10.9 µM in assay [3] and 9.67 µM in assay [5].
With `CNC[C@@H](Cc1ccccc1)N(C)C[C@H](Cc1ccc(O)cc1)N(C)C[C@@H](N)Cc1ccc(O)cc1`, the IC50 in assay [2] stood at 0.037 µM; in assay [3], 8.53 µM; in assay [5], 1.45 µM. For the same compound, the Activity result in assay [4] is “Antagonist”.
Consider `NC[C@@H]1CCCN1C[C@H](Cc1ccccc1)NC[C@H](Cc1ccc(O)cc1)NC[C@@H](N)Cc1ccc(O)cc1`, for which, in assay [1], the IC50 was found to be 0.006 µM.
With `CNC[C@@H](Cc1ccccc1)N(C)C[C@@H](Cc1ccc(O)cc1)N(C)C[C@H](Cc1ccc(O)cc1)N(C)C`, the 50% inhibitory concentration (IC50) in assay [2] is 0.876 µM; in assay [3], 17 µM; in assay [5], 22.4 µM. The Activity entry in assay [4] is “Antagonist”.
With `CNC[C@@H]1CCCN1C[C@H](Cc1ccccc1)N(C)C[C@H](Cc1ccc(O)cc1)N(C)C[C@@H](N)Cc1ccc(O)cc1`, the IC50 in assay [1] came out at 0.013 µM. In assay [4], the Activity entry is “Antagonist”.
`CNC[C@H](Cc1ccccc1)N(C)C[C@H](Cc1ccc(O)cc1)N(C)C[C@H](Cc1ccc(O)cc1)N(C)C`: the IC50 in assay [2] was 0.0005 µM; in assay [3], 4.89 µM; in assay [5], 1.05 µM. Also, the Activity entry in assay [4] was “Antagonist”.
For the compound `CN(C)[C@@H](Cc1ccc(O)cc1)CN(C)[C@H](CNCc1ccccc1)Cc1ccc(O)cc1`, the concentration for half-maximal inhibition (IC50) in assay [2] was 0.038 µM; in assay [3], 8.26 µM; in assay [5], 2.36 µM.
`CNC[C@@H]1CCCN1C[C@H](Cc1ccccc1)N(C)C[C@H](Cc1ccc(O)cc1)N(C)C[C@H](Cc1ccc(O)cc1)N(C)C`: in assay [1], the IC50 was 0.008 µM.
